# From patent US5770595A, “Oxime substituted therapeutic compounds” (Cell Therapeutics, Inc., priority 1994, dated 1998)
# Tests used:
# LPAAT = assay: formation of remodeled PA at LPAAT; type: biochemical
# From the text: Even in the presence of PTX, cells continue to form PA through the action of PLD, and DAG is also formed through the action of phospholipase C on PC and PI. The latter pathway are not inhibited by the inventive compounds or PTX. In PTX-treated cells, DAG derived from remodeled and PLA-generated PA is diminished (e.g., 1,2-sn-dioleoyl DAG, 1-alkyl, 2-linoleoyl DAG and 1-alkyl, 2-docosahexaneolyl DAG). Therefore, the inventive compounds and PTX inhibit the formation of only a certain species of PA and DAG by selectively inhibiting a specific second messenger pathway that is only activated in cells by noxious stimuli, but is not used to signal normal cellular housekeeping functions.
# (§1) One in vitro assay measures inhibition of the relevant enzymes lysophosphatidic acid acyltransferase (LPAAT) and phosphatidic acid phosphoryl hydrolase (PAPH). […] It is important to note that the assay method permits discrimination between various forms of PA and DAG so that those relevant to the pathway affected by the (R) or (S) compounds of the invention can be measured directly. […] Thus, the relevant unsaturated (non-arachidonic) PA and DAG subspecies may be detected. […]
# PAPH = assay: inhibition of PAPH / DAG formation in specific activation pathway; type: biochemical, human; details: specific activation pathway that does not involve PI
# From the text: The compounds and pharmaceutical compositions of the invention include inhibitors of subspecies of LPAAT and PAPH enzymes with substrate specificity for intermediates with 1,2-diunsaturated and 1-alkyl, 2-unsaturated subspecies. One representative example of such an inhibitor (although not within the genus of inventive compounds) is PTX. […] It should be emphasized that the compounds of the invention affect that subset of PAPH and LPAAT that relates to substrates with unsaturated fatty acids other than arachidonate in the sn-2 position, not the housekeeping forms of these enzymes that serve the PI pathway.
# as §1
# [1] = system: tumor necrosis factor (TNF); details: normal volunteers; cited from earlier work
# [2] = system: polymorphonuclear leukocytes; details: cited from earlier work
# L929 cells = assay: TNF-α-mediated cytotoxicity in L929 cells; type: cell-based, murine; details: human TNF-α 300 pg/ml; FIG. 9
# Protocol: An inventive compound can be assayed for activity protecting TNF-mediated cytotoxicity. In this assay, L929 murine fibroblast cells (10^4 cells per well) are incubated with either compounds at varying doses and media control for two hrs. […] The cells plus (or minus) drug plus TNF were incubated for 40 hrs at 37° C. The media is removed and replaced with fresh media containing 2% serum and 10 μg/ml of BCECF fluorescent dye and incubated for 30 min. The fluorescent dye-containing media is removed and replaced with PBS (phosphate buffered saline) and each well was assayed for fluorescence.
# This assay is a model for septic shock. L929 cells (10^5) were treated with human TNF-α at 300 pg/ml in RPMI media containing 10% fetal calf serum with or without compound no. One day later, the cells were stained for viability using the fluorescent dye BCECF and fluorescence of the samples was analyzed using a Milipore plate reader.
# [3] = system: ras-transformed NIH/3T3 cells
# [4] = system: ras transformation in NIH/3T3 cells; assay: generation of DAG and PA in ras-transformed NIH/3T3 cells; type: cell-based; details: pretreatment of cells; 4-12 hours
# From the text: For example, activating ras mutations result in increased generation of DAG upon stimulation with mitogens, although the sources of DAG differ between experimental systems. In nontransformed renal mesangial cells, IL-1β stimulation increased PLA2 and LPAAT activation, resulting in generation of sn-2 unsaturated PA and subsequent hydrolysis to DAG by phosphatidate phosphohydrolase. The ras transformation in NIH/3T3 cells upregulates serum-stimulated generation of DAG and PA. Particular species of DAG that is stimulated by serum is dioleoyl and of PA are dilinoleoyl and dioleoyl. […] The inhibition occurs either through suppressing the generation of PA de novo from lysoPA, or through inhibition of one or both arms of the Lands cycle. […] Therefore, the ras transformation mediates an upregulation of PA through indirect stimulation of PLA2 and/or LPAAT activity.
smiles,measurement,setting,value
"CC(=O)CCCCn1c(=O)c2c(ncn2C)n(C)c1=O [PTX, 1-(5-oxohexyl)-3,7-dimethylxanthine]",DAG derived from remodeled and PLA-generated PA,LPAAT; PTX-treated cells,diminished
same,formation of remodeled PA,"LPAAT; in vitro, high PTX concentrations",blocks formation of remodeled PA through the PA/DAG pathway at high PTX concentrations
same,blocking of PAPH,PAPH,blocks PAPH in a specific activation pathway
same,TNF levels,[1],TNF levels were higher among PTX recipients
same,inhibition of cytokine activity to affect chemotaxis,"[2]; U.S. Pat. Nos. 4,965,271 and 5,096,906",inhibit activity of certain cytokines to affect chemotaxis
same,stimulation of chemotaxis in polymorphonuclear leukocytes,"[2]; in response to a stimulator of chemotaxis, U.S. Pat. No. 4,636,507",stimulate chemotaxis in polymorphonuclear leukocytes
same,protection of L929 cells from TNF-induced cytotoxicity,L929 cells,inhibited TNF-induced cytotoxicity in a dose dependent manner
same,inhibition of ras-transformed NIH/3T3 cells relative to parental cells,[3],inhibits ras-transformed NIH/3T3 cells more than parental cells
same,reversibility / cytotoxicity of inhibition,[3],reversible and is not associated with significant cytotoxicity
same,"generation of phospholipid second messengers (DAG, PA)",[4],blocks generation of these phospholipid second messengers
